The target of this assay is DDX41 (Homo sapiens, UniProt Q9UJV9). Particulars: labelled compound ([γ-32P]ATP).

Molecules are shown by their SMILES.

Sequence of DDX41 (Q9UJV9 whole entry): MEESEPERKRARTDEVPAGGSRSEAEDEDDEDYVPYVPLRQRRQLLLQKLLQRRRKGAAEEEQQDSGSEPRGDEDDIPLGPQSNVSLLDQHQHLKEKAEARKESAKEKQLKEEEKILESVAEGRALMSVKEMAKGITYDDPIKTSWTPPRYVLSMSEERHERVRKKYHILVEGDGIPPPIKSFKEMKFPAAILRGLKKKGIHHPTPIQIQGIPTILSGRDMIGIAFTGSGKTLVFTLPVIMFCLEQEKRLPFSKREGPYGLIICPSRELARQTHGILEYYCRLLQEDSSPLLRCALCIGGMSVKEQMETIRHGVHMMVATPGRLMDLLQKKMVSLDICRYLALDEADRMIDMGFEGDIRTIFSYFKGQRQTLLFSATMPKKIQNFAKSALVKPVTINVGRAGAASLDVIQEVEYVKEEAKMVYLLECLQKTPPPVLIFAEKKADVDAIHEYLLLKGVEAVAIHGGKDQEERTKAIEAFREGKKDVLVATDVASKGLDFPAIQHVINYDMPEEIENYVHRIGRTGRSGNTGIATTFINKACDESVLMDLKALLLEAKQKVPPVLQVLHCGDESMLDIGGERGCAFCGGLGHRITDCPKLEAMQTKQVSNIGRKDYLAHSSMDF

For `Nc1ncnc2c1ncn2[C@@H]1O[C@H](COP(=O)(O)OP(=O)(O)OP(=O)(O)O)[C@@H](O)[C@H]1O` [ATP], the “filter binding (dot blot); ATP-agarose pull-down” value is “we incubated the same amount of WT or R525H proteins with ATP agarose”.

The values above are taken from publication PMC9205463 (Cell reports, 2022).
